According to ChEMBL document CHEMBL1641539 (Bioorg Med Chem Lett, 2011):

Experiments:
[1] = molecular target: Ribosomal protein S6 kinase alpha-1 (Homo sapiens) (UniProt Q15418); assay: Inhibition of human Rsk1 at 10 uM after 60 mins by TR-FRET assay; conditions: values are per cent of control
[2] = molecular target: Vascular endothelial growth factor receptor 2 (Homo sapiens) (UniProt P35968); assay: Inhibition of human KDR at 10 uM after 60 mins by TR-FRET assay; values are per cent of control
[3] = molecular target: Mitogen-activated protein kinase 8 (Homo sapiens, UniProt P45983); assay: Inhibition of human JNK1alpha1 at 10 uM after 60 mins by TR-FRET assay; conditions: values are per cent of control
[4] = molecular target: Insulin receptor-related protein (Homo sapiens) (UniProt P14616); assay: Inhibition of human IRR at 10 uM after 60 mins by TR-FRET assay; values are per cent of control
[5] = molecular target: Tyrosine-protein kinase ABL1 (Mus musculus) (UniProt P00520); assay: Inhibition of mouse Abl at 10 uM after 60 mins by TR-FRET assay; values are per cent of control
[6] = molecular target: RAF proto-oncogene serine/threonine-protein kinase (Homo sapiens) (UniProt P04049); assay: Inhibition of human c-RAF at 10 uM after 60 mins by TR-FRET assay; values are per cent of control
Rattus norvegicus = species on record: Rattus norvegicus; assay: Inhibition of rat CaMK2 at 10 uM after 60 mins by TR-FRET assay; values are per cent of control
[7] = molecular target: Serine/threonine-protein kinase N2 (Homo sapiens) (UniProt Q16513); assay: Inhibition of human PRK2 at 10 uM after 60 mins by TR-FRET assay; values are per cent of control
[8] = molecular target: Serine/threonine-protein kinase WNK3 (Homo sapiens) (UniProt Q9BYP7); assay: Inhibition of human WNK3 at 10 uM after 60 mins by TR-FRET assay; values are per cent of control
[9] = molecular target: Interleukin-1 receptor-associated kinase 4 (Homo sapiens) (UniProt Q9NWZ3); assay: Inhibition of human IRAK4 at 10 uM after 60 mins by TR-FRET assay; conditions: values are per cent of control
[10] = test system: Angiopoietin-1 receptor (Homo sapiens), Q02763 [Y897S]; assay: Inhibition of human Tie2 Y897S mutant at 10 uM after 60 mins by TR-FRET assay; values are per cent of control
[11] = molecular target: Serine/threonine-protein kinase pim-2 (Homo sapiens) (UniProt Q9P1W9); assay: Inhibition of human Pim-2 at 10 uM after 60 mins by TR-FRET assay; values are per cent of control
[12] = molecular target: Serine/threonine-protein kinase Sgk1 (Homo sapiens) (UniProt O00141); assay: Inhibition of human SGK at 10 uM after 60 mins by TR-FRET assay; values are per cent of control
[13] = molecular target: Mitogen-activated protein kinase kinase kinase 5 (Homo sapiens) (UniProt Q99683); assay: Inhibition of human ASK1 at 10 uM after 60 mins by TR-FRET assay; values are per cent of control
Saccharomyces cerevisiae = assay: Inhibition of yeast CK1 at 10 uM after 60 mins by TR-FRET assay; values are per cent of control
[14] = molecular target: LIM domain kinase 1 (Homo sapiens) (UniProt P53667); assay: Inhibition of human LIMK1 at 10 uM after 60 mins by TR-FRET assay; values are per cent of control
[15] = molecular target: Ephrin type-A receptor 8 (Homo sapiens) (UniProt P29322); assay: Inhibition of human EphA8 at 10 uM after 60 mins by TR-FRET assay; values are per cent of control
[16] = molecular target: Cyclin-dependent kinase 2/cyclin A (Homo sapiens) (UniProt P24941+P20248+P78396); assay: Inhibition of human CDK2/cyclinA at 10 uM after 60 mins by TR-FRET assay; values are per cent of control
[17] = molecular target: Maternal embryonic leucine zipper kinase (Homo sapiens) (UniProt Q14680); assay: Inhibition of human MELK at 10 uM after 60 mins by TR-FRET assay; values are per cent of control
[18] = molecular target: Protein kinase C iota type (Homo sapiens) (UniProt P41743); assay: Inhibition of human PKCiota at 10 uM after 60 mins by TR-FRET assay; values are per cent of control
[19] = molecular target: Tyrosine-protein kinase receptor UFO (Homo sapiens) (UniProt P30530); assay: Inhibition of human Axl at 10 uM after 60 mins by TR-FRET assay; values are per cent of control
[20] = molecular target: Serine/threonine-protein kinase PAK 5 (Homo sapiens) (UniProt Q9P286); assay: Inhibition of human PAK5 at 10 uM after 60 mins by TR-FRET assay; values are per cent of control
[21] = molecular target: Tyrosine-protein kinase Lck (Homo sapiens) (UniProt P06239); assay: Inhibition of human Lck at 10 uM after 60 mins by TR-FRET assay; conditions: values are per cent of control
[22] = molecular target: Insulin-like growth factor 1 receptor (Homo sapiens) (UniProt P08069); assay: Inhibition of human IGF-1R at 10 uM after 60 mins by TR-FRET assay; values are per cent of control
[23] = molecular target: Tyrosine-protein kinase SYK (Homo sapiens) (UniProt P43405); assay: Inhibition of human Syk at 10 uM after 60 mins by TR-FRET assay; conditions: values are per cent of control
[24] = molecular target: Macrophage-stimulating protein receptor (Homo sapiens) (UniProt Q04912); assay: Inhibition of human Ron at 10 uM after 60 mins by TR-FRET assay; conditions: values are per cent of control
[25] = molecular target: Serine/threonine-protein kinase Sgk3 (Homo sapiens) (UniProt Q96BR1); assay: Inhibition of human SGK3 at 10 uM after 60 mins by TR-FRET assay; values are per cent of control
[26] = molecular target: Serine/threonine-protein kinase MRCK beta (Homo sapiens) (UniProt Q9Y5S2); assay: Inhibition of human MRCKbeta at 10 uM after 60 mins by TR-FRET assay; values are per cent of control
[27] = molecular target: Tyrosine-protein kinase JAK2 (Homo sapiens) (UniProt O60674); assay: Inhibition of human JAK2 at 10 uM after 60 mins by TR-FRET assay; conditions: values are per cent of control
Homo sapiens = species on record: Homo sapiens; assay: Inhibition of human PKA at 10 uM after 60 mins by TR-FRET assay; values are per cent of control

Serine/threonine-protein kinase N2 (Homo sapiens), sequence (Q16513 whole entry, looked up): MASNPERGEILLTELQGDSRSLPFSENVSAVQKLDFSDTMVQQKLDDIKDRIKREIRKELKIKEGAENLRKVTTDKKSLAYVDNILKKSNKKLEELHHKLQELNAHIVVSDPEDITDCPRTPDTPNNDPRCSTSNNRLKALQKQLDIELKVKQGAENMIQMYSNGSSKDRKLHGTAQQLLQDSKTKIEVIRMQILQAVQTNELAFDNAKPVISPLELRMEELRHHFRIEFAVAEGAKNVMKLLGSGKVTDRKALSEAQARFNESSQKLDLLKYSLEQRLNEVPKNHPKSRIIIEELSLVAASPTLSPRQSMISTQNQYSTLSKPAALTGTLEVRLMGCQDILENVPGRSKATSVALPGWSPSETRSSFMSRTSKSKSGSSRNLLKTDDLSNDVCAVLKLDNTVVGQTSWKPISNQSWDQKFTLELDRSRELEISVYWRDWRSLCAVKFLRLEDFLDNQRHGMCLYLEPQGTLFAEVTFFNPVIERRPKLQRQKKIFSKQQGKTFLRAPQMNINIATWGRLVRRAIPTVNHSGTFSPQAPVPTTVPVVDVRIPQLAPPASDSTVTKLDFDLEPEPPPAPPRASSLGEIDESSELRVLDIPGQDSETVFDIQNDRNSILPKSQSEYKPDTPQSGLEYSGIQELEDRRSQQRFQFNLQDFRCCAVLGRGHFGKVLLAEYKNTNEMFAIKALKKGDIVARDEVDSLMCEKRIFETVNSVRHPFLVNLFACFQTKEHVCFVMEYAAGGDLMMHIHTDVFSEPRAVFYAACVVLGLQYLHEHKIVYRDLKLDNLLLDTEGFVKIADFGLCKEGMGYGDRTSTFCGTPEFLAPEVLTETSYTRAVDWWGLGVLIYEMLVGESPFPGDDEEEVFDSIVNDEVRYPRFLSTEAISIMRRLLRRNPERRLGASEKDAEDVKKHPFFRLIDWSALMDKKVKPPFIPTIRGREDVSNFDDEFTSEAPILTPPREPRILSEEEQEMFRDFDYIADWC
Serine/threonine-protein kinase WNK3 (Homo sapiens), sequence (Q9BYP7 whole entry): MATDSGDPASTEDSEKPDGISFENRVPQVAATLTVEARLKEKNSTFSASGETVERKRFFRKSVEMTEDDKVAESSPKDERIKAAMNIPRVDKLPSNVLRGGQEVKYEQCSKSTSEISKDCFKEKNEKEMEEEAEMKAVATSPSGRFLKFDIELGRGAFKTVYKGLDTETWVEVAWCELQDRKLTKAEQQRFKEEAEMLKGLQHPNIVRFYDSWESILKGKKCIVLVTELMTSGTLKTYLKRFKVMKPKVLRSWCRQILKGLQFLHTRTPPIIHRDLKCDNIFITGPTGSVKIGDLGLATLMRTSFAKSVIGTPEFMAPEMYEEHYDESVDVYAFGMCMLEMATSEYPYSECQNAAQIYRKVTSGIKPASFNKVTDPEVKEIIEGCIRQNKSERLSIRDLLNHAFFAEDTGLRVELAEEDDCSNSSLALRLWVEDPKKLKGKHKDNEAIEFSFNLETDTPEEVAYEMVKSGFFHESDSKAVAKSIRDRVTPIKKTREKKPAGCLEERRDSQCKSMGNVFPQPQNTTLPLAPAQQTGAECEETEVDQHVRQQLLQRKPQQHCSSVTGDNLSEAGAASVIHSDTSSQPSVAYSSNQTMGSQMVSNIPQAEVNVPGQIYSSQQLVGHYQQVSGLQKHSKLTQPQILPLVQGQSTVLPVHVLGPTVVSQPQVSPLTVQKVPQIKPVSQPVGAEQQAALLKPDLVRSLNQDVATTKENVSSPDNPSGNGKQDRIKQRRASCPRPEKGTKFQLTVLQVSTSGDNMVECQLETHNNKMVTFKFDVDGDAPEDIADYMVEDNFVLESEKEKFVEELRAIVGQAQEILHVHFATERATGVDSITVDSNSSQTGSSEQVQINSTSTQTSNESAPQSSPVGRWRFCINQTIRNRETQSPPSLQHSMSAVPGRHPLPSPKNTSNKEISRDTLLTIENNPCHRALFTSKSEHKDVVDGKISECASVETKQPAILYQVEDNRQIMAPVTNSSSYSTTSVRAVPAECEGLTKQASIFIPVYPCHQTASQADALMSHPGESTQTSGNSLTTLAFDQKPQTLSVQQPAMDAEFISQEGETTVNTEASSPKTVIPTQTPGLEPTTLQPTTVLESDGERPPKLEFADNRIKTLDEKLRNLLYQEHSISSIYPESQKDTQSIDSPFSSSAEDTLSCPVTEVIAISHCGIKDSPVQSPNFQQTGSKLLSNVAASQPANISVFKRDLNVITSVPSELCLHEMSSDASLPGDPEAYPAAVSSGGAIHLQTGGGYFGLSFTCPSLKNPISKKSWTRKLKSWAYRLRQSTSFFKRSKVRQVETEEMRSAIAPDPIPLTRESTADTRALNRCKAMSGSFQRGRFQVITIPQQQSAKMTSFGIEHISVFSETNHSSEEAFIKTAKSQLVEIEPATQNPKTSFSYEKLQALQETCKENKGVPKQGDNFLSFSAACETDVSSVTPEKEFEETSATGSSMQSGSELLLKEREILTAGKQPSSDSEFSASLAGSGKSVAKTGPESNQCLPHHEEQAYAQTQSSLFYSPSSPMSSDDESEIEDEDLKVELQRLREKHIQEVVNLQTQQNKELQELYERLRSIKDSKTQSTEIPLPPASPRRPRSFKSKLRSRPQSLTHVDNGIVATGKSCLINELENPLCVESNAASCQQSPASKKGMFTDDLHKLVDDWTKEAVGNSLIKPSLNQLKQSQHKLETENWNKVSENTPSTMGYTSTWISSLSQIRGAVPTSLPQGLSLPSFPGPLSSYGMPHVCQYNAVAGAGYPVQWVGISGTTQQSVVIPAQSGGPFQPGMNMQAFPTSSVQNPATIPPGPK
Ephrin type-A receptor 8 (Homo sapiens), sequence (P29322 whole entry): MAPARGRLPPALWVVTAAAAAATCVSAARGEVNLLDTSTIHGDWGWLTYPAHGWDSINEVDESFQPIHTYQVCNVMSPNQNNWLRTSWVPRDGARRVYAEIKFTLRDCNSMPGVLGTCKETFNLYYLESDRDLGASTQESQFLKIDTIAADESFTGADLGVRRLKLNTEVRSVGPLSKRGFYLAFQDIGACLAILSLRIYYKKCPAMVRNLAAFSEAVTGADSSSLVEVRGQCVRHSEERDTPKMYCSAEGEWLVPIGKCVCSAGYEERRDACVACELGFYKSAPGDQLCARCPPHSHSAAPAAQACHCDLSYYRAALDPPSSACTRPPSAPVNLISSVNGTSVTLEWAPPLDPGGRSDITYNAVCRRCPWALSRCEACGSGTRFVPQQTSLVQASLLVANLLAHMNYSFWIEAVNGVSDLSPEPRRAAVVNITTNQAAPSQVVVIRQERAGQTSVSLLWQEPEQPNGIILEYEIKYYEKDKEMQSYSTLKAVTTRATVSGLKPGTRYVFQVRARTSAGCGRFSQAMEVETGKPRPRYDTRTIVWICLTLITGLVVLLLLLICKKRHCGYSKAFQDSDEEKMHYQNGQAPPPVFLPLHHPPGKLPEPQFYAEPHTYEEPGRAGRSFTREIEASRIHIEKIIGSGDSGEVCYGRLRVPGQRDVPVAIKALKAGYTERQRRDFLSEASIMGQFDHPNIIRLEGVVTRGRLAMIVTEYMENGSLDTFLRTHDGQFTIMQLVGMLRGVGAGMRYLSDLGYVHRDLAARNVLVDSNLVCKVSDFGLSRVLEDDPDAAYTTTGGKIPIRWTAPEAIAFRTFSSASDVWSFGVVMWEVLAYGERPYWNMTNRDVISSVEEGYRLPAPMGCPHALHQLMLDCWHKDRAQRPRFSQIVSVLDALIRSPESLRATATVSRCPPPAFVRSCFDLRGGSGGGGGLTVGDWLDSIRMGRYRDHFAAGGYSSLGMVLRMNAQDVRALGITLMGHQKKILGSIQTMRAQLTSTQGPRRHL
Ribosomal protein S6 kinase alpha-1 (Homo sapiens), sequence (Q15418 whole entry): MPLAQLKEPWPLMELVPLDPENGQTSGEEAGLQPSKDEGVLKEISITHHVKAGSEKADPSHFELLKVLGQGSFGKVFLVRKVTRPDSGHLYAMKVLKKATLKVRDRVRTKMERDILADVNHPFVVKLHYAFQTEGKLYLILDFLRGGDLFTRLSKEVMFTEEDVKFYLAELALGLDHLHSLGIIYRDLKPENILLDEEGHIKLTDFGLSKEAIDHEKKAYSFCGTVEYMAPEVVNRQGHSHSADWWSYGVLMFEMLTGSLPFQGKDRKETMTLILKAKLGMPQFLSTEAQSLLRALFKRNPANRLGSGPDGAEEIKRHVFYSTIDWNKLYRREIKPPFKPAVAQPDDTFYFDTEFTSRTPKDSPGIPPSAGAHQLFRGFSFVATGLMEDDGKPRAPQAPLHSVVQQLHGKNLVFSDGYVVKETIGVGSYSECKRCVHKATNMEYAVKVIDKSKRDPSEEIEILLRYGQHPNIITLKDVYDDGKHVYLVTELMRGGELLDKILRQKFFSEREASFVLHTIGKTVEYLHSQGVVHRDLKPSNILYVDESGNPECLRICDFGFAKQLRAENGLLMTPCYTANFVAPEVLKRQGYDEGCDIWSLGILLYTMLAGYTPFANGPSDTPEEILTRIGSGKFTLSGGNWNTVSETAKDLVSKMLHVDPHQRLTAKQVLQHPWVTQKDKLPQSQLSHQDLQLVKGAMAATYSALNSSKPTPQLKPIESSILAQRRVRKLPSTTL
Interleukin-1 receptor-associated kinase 4 (Homo sapiens), sequence (Q9NWZ3 whole entry): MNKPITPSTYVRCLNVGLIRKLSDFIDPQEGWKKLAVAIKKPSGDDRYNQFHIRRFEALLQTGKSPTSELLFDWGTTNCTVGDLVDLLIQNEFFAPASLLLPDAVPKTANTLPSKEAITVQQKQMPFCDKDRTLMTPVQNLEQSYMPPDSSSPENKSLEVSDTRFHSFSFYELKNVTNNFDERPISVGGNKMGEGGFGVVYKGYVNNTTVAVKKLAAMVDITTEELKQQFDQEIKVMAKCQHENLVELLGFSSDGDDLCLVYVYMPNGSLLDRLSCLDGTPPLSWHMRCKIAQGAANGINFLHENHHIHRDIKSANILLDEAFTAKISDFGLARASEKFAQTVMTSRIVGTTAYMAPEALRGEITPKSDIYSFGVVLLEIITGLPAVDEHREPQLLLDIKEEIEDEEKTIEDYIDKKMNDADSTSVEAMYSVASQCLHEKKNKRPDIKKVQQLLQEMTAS

residual activity [1]: 105%
residual activity [2]: 105%
residual activity [3]: 110%
residual activity [4]: 111%
residual activity [5]: 94%
residual activity [6]: 35%
residual activity (Rattus norvegicus): 110%
residual activity [7]: 112%
residual activity [8]: 100%
residual activity [9]: 114%
residual activity [10]: 92%
residual activity [11]: 111%
residual activity [12]: 109%
residual activity [13]: 102%
residual activity (Saccharomyces cerevisiae): 90%
residual activity [14]: 101%
residual activity [15]: 99%
residual activity [16]: 114%
residual activity [17]: 105%
residual activity [18]: 98%
residual activity [19]: 110%
residual activity [20]: 101%
residual activity [21]: 76%
residual activity [22]: 115%
residual activity [23]: 116%
residual activity [24]: 110%
residual activity [25]: 102%
residual activity [26]: 106%
residual activity [27]: 110%
residual activity (Homo sapiens): 93%
Structure (SMILES): S=c1[nH]nc(-c2ccncc2)n1-c1ccc2ccccc2c1
